Reference: ChEMBL document CHEMBL1201862, “PubChem BioAssay data set” (2004)
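Following 48 hours of exposure in 96-well plates, responses at five concentrations were used to interpolate endpoints linearly. Abbreviation: GI50, concentration required for 50% inhibition of growth.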 The source made the active and inactive calls. Cut-off read from the data, not from the text of the source: active = GI50 up to about 1.1 µM and inactive = higher.

Tests used:
Test in all cases: growth of human tumour cells (NCI), 48 h
TK-10 = system: TK-10
SF-295 = system: SF-295
HOP-62 = system: HOP-62
UO-31 = system: UO-31
SW-620 = system: SW-620
SR = system: SR
OVCAR-5 = system: OVCAR-5
OVCAR-8 = system: OVCAR-8
MDA-MB-231 = system: MDA-MB-231
OVCAR-4 = system: OVCAR-4
NCI-H522 = system: NCI-H522
ACHN = system: ACHN
MDA-MB-435 = system: MDA-MB-435
U-251 = system: U-251
DU-145 = system: DU-145
COLO 205 = system: COLO 205
EKVX = system: EKVX
SNB-19 = system: SNB-19
UACC-257 = system: UACC-257
OVCAR-3 = system: OVCAR-3

Clc1ccc2oc(CCc3ccccc3)nc2c1 was tested, and the GI50 (TK-10) was 69.7 µM (inactive), the GI50 (SF-295) was 33.6 µM (inactive) and the GI50 (HOP-62) was > 100 µM (inactive). For the same compound, the GI50 (UO-31) was 62.7 µM (inactive), the GI50 (SW-620) was 49.4 µM (inactive) and the GI50 (SR) was 57.3 µM (inactive). The GI50 (OVCAR-5) was 83.2 µM (inactive), the GI50 (OVCAR-8) was 78.9 µM (inactive) and the GI50 (MDA-MB-231) was > 100 µM (inactive). The GI50 (OVCAR-4) was 52 µM (inactive), the GI50 (NCI-H522) was 35.6 µM (inactive) and the GI50 (ACHN) was 47.2 µM (inactive). For the same compound, the GI50 (MDA-MB-435) was 44.2 µM (inactive), the GI50 (U-251) was 37.2 µM (inactive) and the GI50 (DU-145) was 48.1 µM (inactive). The GI50 (COLO 205) was 41.7 µM (inactive), the GI50 (EKVX) was 32.5 µM (inactive) and the GI50 (SNB-19) was 91.6 µM (inactive). For the same compound, the GI50 (UACC-257) was 42.4 µM (inactive) and the GI50 (OVCAR-3) was 21.3 µM (inactive).
In the case of CCCCCC(/C=N/NC(N)=S)C(O)(C(F)(F)F)C(F)(F)F (centres undefined), the GI50 (TK-10) is reported as > 10 µM (inactive), the GI50 (SF-295) is reported as > 10 µM (inactive) and the GI50 (HOP-62) is reported as > 10 µM (inactive). For the same compound, the GI50 (SW-620) was > 10 µM (inactive), the GI50 (SR) was > 10 µM (inactive) and the GI50 (OVCAR-5) was > 10 µM (inactive). The GI50 (OVCAR-8) was > 10 µM (inactive), the GI50 (MDA-MB-231) was > 10 µM (inactive) and the GI50 (OVCAR-4) was > 10 µM (inactive). For the same compound, the GI50 (NCI-H522) was > 10 µM (inactive), the GI50 (ACHN) was > 10 µM (inactive) and the GI50 (MDA-MB-435) was > 10 µM (inactive). For the same compound, the GI50 (U-251) was > 10 µM (inactive), the GI50 (DU-145) was > 10 µM (inactive) and the GI50 (COLO 205) was > 10 µM (inactive). The GI50 (EKVX) was > 10 µM (inactive), the GI50 (SNB-19) was > 10 µM (inactive) and the GI50 (UACC-257) was > 10 µM (inactive). The GI50 (OVCAR-3) was > 10 µM (inactive).
CC1OC(OC2C(O[C@H]3CC[C@@]4(C)C(=CC[C@H]5[C@@H]6C[C@@H]7O[C@]8(CC[C@H](C)CN8)[C@@H](C)[C@@H]7[C@@]6(C)CC[C@@H]54)C3)OC(CO)C(O)C2OC2OC(CO)C(O)C(O)C2O)C(O)C(O)C1O (some centres undefined) was tested, and the GI50 (TK-10) was 17.3 µM (inactive), the GI50 (SF-295) was 18.4 µM (inactive) and the GI50 (UO-31) was 19.1 µM (inactive). For the same compound, the GI50 (SW-620) was 19.2 µM (inactive), the GI50 (SR) was 29 µM (inactive) and the GI50 (OVCAR-5) was 14.8 µM (inactive). The GI50 (OVCAR-8) was 15.5 µM (inactive), the GI50 (MDA-MB-231) was 21.4 µM (inactive) and the GI50 (OVCAR-4) was 19.8 µM (inactive). The GI50 (NCI-H522) was 12.8 µM (inactive), the GI50 (ACHN) was 17.6 µM (inactive) and the GI50 (MDA-MB-435) was 23.5 µM (inactive). The GI50 (U-251) was 37.2 µM (inactive), the GI50 (DU-145) was 19.4 µM (inactive) and the GI50 (COLO 205) was 17.9 µM (inactive). For the same compound, the GI50 (EKVX) was 16.5 µM (inactive), the GI50 (SNB-19) was 20.7 µM (inactive) and the GI50 (UACC-257) was 18.2 µM (inactive).
CC(=O)OC(Cc1ccc2ccccc2n1)(C(F)(F)F)C(F)(F)F was tested, and the GI50 (TK-10) was 0.33 µM (active), the GI50 (SF-295) was 4.5 µM (inactive) and the GI50 (HOP-62) was 10.4 µM (inactive). The GI50 (UO-31) was 2.22 µM (inactive), the GI50 (SW-620) was 0.426 µM (active) and the GI50 (SR) was 0.11 µM (active). The GI50 (OVCAR-5) was 2.89 µM (inactive), the GI50 (OVCAR-8) was 1.69 µM (inactive) and the GI50 (MDA-MB-231) was 1.28 µM (inactive). The GI50 (OVCAR-4) was 2.45 µM (inactive), the GI50 (NCI-H522) was 0.519 µM (active) and the GI50 (ACHN) was 3.78 µM (inactive). For the same compound, the GI50 (MDA-MB-435) was 1.21 µM (inactive), the GI50 (U-251) was 5.74 µM (inactive) and the GI50 (DU-145) was 3.31 µM (inactive). For the same compound, the GI50 (COLO 205) was 0.217 µM (active), the GI50 (EKVX) was 4.62 µM (inactive) and the GI50 (SNB-19) was 3.76 µM (inactive). For the same compound, the GI50 (OVCAR-3) was 0.676 µM (active).
c1ccc2c(c1)SCCCSCCCS2 was tested, and the GI50 (TK-10) was > 100 µM (inactive), the GI50 (SF-295) was > 100 µM (inactive) and the GI50 (HOP-62) was > 100 µM (inactive). For the same compound, the GI50 (SW-620) was > 100 µM (inactive), the GI50 (SR) was 50.5 µM (inactive) and the GI50 (OVCAR-5) was > 100 µM (inactive). The GI50 (OVCAR-8) was > 100 µM (inactive), the GI50 (MDA-MB-231) was 65.3 µM (inactive) and the GI50 (OVCAR-4) was 76 µM (inactive). For the same compound, the GI50 (NCI-H522) was > 100 µM (inactive), the GI50 (MDA-MB-435) was > 100 µM (inactive) and the GI50 (U-251) was > 100 µM (inactive). The GI50 (DU-145) was > 100 µM (inactive), the GI50 (COLO 205) was 74.5 µM (inactive) and the GI50 (EKVX) was > 100 µM (inactive). For the same compound, the GI50 (SNB-19) was > 100 µM (inactive), the GI50 (UACC-257) was > 100 µM (inactive) and the GI50 (OVCAR-3) was > 100 µM (inactive).
